Source: patent US9580413B2, “Substituted pyrrolidines as ROS tyrosine kinase inhibitors” (NIPPON SHINYAKU CO., LTD., priority 2012, dated 2017)
Where a name gives a salt, the structure may show the parent alone.

Assays:
ROS tyrosine kinase = molecular target: T1, ROS tyrosine kinase (Homo sapiens, UniProt P08922); experiment: ROS tyrosine kinase inhibitory activity test (ELISA); type: biochemical, humans; conditions: 25 μM ATP substrate solution, 30° C., one hour
T1 construct: purchased Carna Biosciences, Inc
T1 sequence (P08922 28-2347): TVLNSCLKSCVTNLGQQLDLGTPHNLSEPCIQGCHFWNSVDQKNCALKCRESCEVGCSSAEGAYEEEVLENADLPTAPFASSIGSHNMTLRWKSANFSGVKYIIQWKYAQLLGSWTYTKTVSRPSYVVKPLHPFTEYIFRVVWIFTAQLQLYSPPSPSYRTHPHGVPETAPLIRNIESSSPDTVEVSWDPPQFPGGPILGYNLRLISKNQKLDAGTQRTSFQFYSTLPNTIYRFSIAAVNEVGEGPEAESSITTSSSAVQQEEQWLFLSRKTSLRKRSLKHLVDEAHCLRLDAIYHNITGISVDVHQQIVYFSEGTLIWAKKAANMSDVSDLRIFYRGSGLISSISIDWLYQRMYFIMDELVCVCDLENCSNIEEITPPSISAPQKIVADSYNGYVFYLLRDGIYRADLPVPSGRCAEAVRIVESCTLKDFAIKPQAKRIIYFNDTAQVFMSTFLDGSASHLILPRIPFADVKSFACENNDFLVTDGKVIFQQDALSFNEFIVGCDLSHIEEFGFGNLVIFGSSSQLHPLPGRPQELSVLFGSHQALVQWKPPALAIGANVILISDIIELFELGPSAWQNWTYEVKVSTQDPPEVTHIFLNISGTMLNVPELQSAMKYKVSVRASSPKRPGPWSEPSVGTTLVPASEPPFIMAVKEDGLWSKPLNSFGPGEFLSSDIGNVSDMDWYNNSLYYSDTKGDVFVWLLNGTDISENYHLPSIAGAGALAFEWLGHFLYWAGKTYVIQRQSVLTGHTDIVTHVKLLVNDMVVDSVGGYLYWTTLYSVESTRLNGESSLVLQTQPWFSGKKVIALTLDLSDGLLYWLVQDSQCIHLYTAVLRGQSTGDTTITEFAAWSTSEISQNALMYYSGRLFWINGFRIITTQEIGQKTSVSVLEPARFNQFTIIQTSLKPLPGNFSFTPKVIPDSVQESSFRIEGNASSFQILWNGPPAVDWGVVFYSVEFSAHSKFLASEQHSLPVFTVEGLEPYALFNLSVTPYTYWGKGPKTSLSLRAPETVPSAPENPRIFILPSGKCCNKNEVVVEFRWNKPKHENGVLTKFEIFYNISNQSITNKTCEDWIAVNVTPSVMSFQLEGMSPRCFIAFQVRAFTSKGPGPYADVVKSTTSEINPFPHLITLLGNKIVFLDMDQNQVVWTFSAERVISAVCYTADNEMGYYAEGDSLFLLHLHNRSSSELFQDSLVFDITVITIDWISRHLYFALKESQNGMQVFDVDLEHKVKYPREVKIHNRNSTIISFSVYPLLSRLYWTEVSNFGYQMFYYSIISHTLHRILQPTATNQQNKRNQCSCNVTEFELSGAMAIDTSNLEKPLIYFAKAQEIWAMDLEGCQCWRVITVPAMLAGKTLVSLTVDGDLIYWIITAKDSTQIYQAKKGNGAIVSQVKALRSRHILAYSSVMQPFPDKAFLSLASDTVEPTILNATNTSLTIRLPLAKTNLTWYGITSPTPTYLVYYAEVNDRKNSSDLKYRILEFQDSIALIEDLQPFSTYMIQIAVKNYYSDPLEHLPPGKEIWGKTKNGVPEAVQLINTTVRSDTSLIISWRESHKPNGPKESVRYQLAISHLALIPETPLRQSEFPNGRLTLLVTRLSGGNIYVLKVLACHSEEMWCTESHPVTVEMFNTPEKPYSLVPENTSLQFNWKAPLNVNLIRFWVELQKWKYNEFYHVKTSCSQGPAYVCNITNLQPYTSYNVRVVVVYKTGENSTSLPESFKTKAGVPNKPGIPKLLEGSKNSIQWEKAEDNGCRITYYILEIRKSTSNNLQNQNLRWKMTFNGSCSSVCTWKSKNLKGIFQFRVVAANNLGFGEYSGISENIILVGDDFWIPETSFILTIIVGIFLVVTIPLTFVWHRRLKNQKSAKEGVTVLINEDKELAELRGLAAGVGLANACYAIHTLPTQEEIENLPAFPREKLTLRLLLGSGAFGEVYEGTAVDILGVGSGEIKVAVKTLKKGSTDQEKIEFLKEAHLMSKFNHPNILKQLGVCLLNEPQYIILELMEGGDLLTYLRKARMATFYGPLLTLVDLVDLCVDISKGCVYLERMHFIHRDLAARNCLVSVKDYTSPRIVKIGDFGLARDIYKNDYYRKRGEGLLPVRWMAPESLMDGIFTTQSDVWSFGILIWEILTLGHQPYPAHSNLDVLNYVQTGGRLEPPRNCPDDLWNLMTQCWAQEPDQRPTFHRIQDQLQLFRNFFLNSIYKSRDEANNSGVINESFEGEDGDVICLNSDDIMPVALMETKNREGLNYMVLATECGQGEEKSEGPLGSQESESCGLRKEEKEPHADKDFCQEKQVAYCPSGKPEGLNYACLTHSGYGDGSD
Procedure: (§1) 1. Preparation of Test Substance:
(§2) A test substance was dissolved in dimethyl sulfoxide (DMSO) to 10 mM and further diluted with DMSO to concentrations of 100-fold of the concentrations to be measured (100, 10, 1, 0.1, and 0.01 μM). Furthermore, the resultant was diluted with an assay buffer to 20-fold, thereby preparing a solution as a test substance solution. A solution prepared by diluting DMSO with an assay buffer to 20-fold was used as a negative control. A buffer containing 15 mM Tris-Cl (pH 7.5), 0.01 (v/v) % Tween-20, and 1 mM dithiothreitol was used as the assay buffer.
(§3) 2. Measurement of ROS Tyrosine Kinase Activity and JAK2 Tyrosine Kinase Activity:
(§4) The activity was measured by adopting the ELISA method. […] Finally, an ROS kinase or a JAK2 kinase (derived from humans, Carna Biosciences, Inc.) (diluted with the assay buffer to 0.25 nM) was added to the plate at 20 μL per well, and the resulting mixture was stirred. A reaction was performed at 30° C. for one hour. After the plate was washed 4 times with a washing buffer (50 mM Tris-Cl (pH 7.5), 150 mM NaCl, and 0.02 (v/v) % Tween-20), a blocking buffer (0.1% bovine serum albumin, 50 mM Tris-Cl (pH 7.5), 150 mM NaCl, and 0.02 (v/v) % Tween-20) was added to the plate at 150 μL per well, and incubated at 30° C. for 30 minutes. The blocking buffer was then removed, and a horse radish peroxidase-labeled anti-phosphorylated tyrosine antibody (BD Biosciences, Inc.) (diluted with the blocking buffer to 10,000-fold) was added to the plate at 100 μL per well, and the plate was incubated at 30° C. for 30 minutes. After the plate was washed 4 times with the washing buffer, a 3,3′,5,5′-tetramethylbenzidine solution (Sigma-Aldrich Co., Ltd.) was added to the plate at 100 μL per well to develop the color for 10 minutes. The reaction was stopped by adding 0.1 M sulfuric acid at 100 μL per well. An absorbance at 450 nm was measured with a microplate reader (Model 3550, manufactured by BIO-RAD, Benchmark, manufactured by BIO-RAD, or iMARK, manufactured by BIO-RAD).
(§5) 3. Analysis of Measurement Results:
(§6) A non-linear regression analysis was performed for the measured absorbance with an SAS system (SAS Institute Inc.), and a concentration of each of the test substances of inhibiting the ROS tyrosine kinase activity or JAK2 tyrosine kinase activity at 50% (IC50) was calculated. The inhibitory activity (IC50, nM) of each of the test substances against the ROS tyrosine kinase or JAK2 tyrosine kinase is shown in Tables 6 to 8.

JAK2 tyrosine kinase = molecular target: T2, JAK2 tyrosine kinase (Homo sapiens, UniProt O60674); experiment: JAK2 tyrosine kinase inhibitory activity test (ELISA); type: biochemical, humans; conditions: 25 μM ATP substrate solution, 30° C., one hour
T2 construct: purchased Carna Biosciences, Inc
Procedure: as §1, §2, §3, §4, §5, §6

FIG-ROS/BaF3 cell = molecular target: T3, FIG-ROS/BaF3 cell (Homo sapiens, UniProt P08922); experiment: Proliferation inhibitory activity test against FIG-ROS/BaF3 cell; type: cell-based; conditions: 3 days incubation, cell counting kit; read-out: Proliferation inhibitory activity against FIG-ROS/BaF3 cell (IC50)
T3 construct: fused on or other part: Q9HD26 (Golgi-associated PDZ and coiled-coil motif-containing protein)
T3 sequence (P08922 whole entry, stated change not applied, the tested form may be a part): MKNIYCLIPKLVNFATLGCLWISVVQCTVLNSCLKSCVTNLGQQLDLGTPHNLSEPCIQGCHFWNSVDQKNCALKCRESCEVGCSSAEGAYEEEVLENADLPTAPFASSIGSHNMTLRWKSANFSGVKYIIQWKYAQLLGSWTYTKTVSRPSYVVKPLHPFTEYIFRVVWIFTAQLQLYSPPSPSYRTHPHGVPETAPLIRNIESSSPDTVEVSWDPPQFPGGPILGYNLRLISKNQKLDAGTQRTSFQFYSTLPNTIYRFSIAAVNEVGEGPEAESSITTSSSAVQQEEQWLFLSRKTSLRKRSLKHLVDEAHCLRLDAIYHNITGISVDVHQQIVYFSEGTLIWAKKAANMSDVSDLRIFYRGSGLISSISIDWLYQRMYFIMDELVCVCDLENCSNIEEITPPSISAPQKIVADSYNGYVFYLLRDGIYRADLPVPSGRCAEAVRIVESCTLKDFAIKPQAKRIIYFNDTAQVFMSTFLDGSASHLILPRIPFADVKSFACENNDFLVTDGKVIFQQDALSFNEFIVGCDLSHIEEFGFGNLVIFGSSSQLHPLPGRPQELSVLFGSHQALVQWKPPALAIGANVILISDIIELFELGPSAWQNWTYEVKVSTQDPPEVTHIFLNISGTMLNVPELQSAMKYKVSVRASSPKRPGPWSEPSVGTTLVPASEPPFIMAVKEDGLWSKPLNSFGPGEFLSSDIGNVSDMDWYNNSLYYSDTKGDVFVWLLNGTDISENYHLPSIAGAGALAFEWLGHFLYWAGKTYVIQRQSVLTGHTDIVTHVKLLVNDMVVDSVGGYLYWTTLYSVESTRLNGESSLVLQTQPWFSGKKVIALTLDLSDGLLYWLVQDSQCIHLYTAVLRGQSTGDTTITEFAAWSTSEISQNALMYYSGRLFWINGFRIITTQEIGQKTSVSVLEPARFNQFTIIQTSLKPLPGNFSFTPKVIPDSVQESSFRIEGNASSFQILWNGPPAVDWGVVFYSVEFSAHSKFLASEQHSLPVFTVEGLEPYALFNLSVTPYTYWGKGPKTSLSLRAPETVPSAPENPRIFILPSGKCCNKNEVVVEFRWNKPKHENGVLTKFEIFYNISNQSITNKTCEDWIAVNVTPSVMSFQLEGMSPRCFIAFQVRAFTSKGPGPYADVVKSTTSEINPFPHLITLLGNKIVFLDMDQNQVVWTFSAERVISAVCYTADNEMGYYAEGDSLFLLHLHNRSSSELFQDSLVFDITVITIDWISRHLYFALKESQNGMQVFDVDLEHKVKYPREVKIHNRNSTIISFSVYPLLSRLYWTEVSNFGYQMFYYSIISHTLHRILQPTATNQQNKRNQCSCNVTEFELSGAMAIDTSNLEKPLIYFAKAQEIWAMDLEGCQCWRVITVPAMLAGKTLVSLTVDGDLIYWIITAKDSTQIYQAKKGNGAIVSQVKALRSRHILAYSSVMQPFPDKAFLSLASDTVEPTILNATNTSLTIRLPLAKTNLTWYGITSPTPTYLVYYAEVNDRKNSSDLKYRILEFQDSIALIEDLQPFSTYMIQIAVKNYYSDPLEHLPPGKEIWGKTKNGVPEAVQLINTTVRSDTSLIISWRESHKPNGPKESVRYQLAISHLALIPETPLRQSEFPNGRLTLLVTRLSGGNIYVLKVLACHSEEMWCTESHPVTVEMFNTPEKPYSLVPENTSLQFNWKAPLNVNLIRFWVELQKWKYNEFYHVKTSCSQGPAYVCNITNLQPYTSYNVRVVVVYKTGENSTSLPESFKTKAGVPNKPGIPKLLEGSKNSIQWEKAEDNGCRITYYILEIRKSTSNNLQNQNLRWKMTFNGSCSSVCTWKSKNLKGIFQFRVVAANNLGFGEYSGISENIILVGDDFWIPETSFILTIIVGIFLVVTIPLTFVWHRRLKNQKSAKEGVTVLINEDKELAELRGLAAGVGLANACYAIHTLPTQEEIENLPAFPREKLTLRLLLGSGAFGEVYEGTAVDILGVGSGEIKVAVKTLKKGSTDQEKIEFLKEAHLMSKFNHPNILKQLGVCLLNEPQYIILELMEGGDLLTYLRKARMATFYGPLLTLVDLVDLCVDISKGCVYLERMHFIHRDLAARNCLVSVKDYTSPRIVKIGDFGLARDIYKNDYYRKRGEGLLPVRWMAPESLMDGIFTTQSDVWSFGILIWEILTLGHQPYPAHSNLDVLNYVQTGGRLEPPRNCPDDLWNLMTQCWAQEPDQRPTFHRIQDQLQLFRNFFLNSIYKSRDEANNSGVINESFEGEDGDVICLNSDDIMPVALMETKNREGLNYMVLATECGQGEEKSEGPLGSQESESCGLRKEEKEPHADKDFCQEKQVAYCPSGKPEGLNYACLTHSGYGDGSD
Procedure: A BaF3 cell which had been transformed by introducing the FIG-ROS fusion gene (derived from U118MG human glioma cell) (FIG-ROS/BaF3 Cell) was prepared on a culture medium, seeded on a 96-well plate in the number of 1×10^3/100 μL per well, and then allowed to stand in a CO2 incubator (at 37° C. and 5% CO2). As the culture medium, 10% FBS (fetal bovine serum)-incorporated RPMI-1640 was used.
2. Proliferation Inhibitory Activity Test:
A test substance was dissolved in dimethyl sulfoxide (DMSO) to 10 mM and further diluted with DMSO to 100-fold to prepare a 100 μM solution. This was diluted with a 1% DMSO-incorporated medium to concentrations of 10-fold of the concentration to be measured (10,000, 1,000, 100, 10, and 1 nM). Each of the medicine solutions was added at 11 μL per well and mixed. To a control having no medicine added thereto, a 1% DMSO-incorporated medium was added, and incubated in a CO2 incubator (at 37° C. and 5% CO2) for 3 days. After completion of the incubation, the number of live cells was counted using a cell counting kit. First of all, each cell counting kit solution was added at 5 μL per well and mixed, and incubated in a CO2 incubator (at 37° C. and 5% CO2) for 4 hours. An absorbance at 450 nm was measured with a microplate reader (Model 3550, manufactured by BIO-RAD, Benchmark, manufactured by BIO-RAD, or iMARK, manufactured by BIO-RAD) with a reference wavelength of 650 nm.
as §5
A non-linear regression analysis was performed for the measured absorbance with an SAS system (SAS Institute Inc.), and a concentration of each of the test substances of inhibiting the cell proliferation at 50% (IC50) was calculated. The proliferation inhibitory activity (IC50, nM) of each of the test substances against the FIG-ROS/BaF3 cell is shown in Table 9.

Compound `Cc1ccc([C@@H]2CCCN2c2cncc(Nc3ncc(C#N)s3)n2)cc1` [Example 1, 2-({6-[(2S)-2-(4-Methylphenyl)pyrrolidin-1-yl]pyrazin-2-yl}amino)-1,3-thiazole-5-carbonitrile hydrochloride] has an IC50 (ROS tyrosine kinase) of 1.6 nM, an IC50 (JAK2 tyrosine kinase) of 76 nM and a GI50 (FIG-ROS/BaF3 cell) of 2.2 nM.

Work on `COc1c(Nc2ncc(C#N)s2)nc(N2CCCC2c2ccc(C)cc2)nc1-c1ccc(C(N)=O)cc1` (stereo not drawn) [Example 4, 4-{6-[(5-Cyano-1,3-thiazol-2-yl)amino]-5-methoxy-2-[2-(4-methylphenyl)pyrrolidin-1-yl]pyrimidin-4-yl}benzamide] yielded an IC50 (ROS tyrosine kinase) of 35 nM, an IC50 (JAK2 tyrosine kinase) of over 1000 nM and a GI50 (FIG-ROS/BaF3 cell) of 2.6 nM.

In the case of `COC(=O)c1cc(Nc2ncc(C#N)s2)nc(N2CCCC2c2ccc(C)cc2)n1` (stereo not drawn) [Example 6, Methyl 6-[(5-cyano-1,3-thiazol-2-yl)amino]-2-[2-(4-methylphenyl)pyrrolidin-1-yl]pyrimidine-4-carboxylate], the IC50 (ROS tyrosine kinase) is reported as 7.1 nM, the IC50 (JAK2 tyrosine kinase) is reported as 92 nM and the GI50 (FIG-ROS/BaF3 cell) is reported as 23 nM.

In the case of `Cc1ccc(C2CCCN2c2nc(Nc3ncc(C#N)s3)cc(C(=O)O)n2)cc1` (stereo not drawn) [Example 7, 6-[(5-Cyano-1,3-thiazol-2-yl)amino]-2-[2-(4-methylphenyl)pyrrolidin-1-yl]pyrimidine-4-carboxylic acid], the IC50 (ROS tyrosine kinase) is reported as 0.6 nM, the IC50 (JAK2 tyrosine kinase) is reported as 37 nM and the GI50 (FIG-ROS/BaF3 cell) is reported as 83 nM.

`COc1c(C)nc(N2CCC[C@H]2c2ccc(C)cc2)nc1Nc1ncc(C#N)s1` [Example 9, 2-({5-Methoxy-6-methyl-2-[(2S)-2-(4-methylphenyl)pyrrolidin-1-yl]pyrimidin-4-yl}amino)-1,3-thiazole-5-carbonitrile maleate] showed an IC50 (ROS tyrosine kinase) of 0.6 nM, an IC50 (JAK2 tyrosine kinase) of 500 nM and a GI50 (FIG-ROS/BaF3 cell) of 2.1 nM.

Compound `COc1c(Nc2ncc(C#N)s2)nc(N2CCCC2c2ccc(C)cc2)nc1-c1cnco1` (stereo not drawn) [Example 11, 2-({5-Methoxy-2-[2-(4-methylphenyl)pyrrolidin-1-yl]-6-(1,3-oxazol-5-yl)pyrimidin-4-yl}amino)-1,3-thiazole-5-carbonitrile] has an IC50 (ROS tyrosine kinase) of 2.7 nM, an IC50 (JAK2 tyrosine kinase) of over 1000 nM and a GI50 (FIG-ROS/BaF3 cell) of 2.2 nM.

With `Cc1ccc(C2CCCN2c2nc(Nc3ncc(C#N)s3)cc(C(=O)N[C@H](C)CO)n2)cc1` (stereo partly drawn) [Example 12, 6-[(5-Cyano-1,3-thiazol-2-yl)amino]-N-[(2R)-1-hydroxypropan-2-yl]-2-[2-(4-methylphenyl)pyrrolidin-1-yl]pyrimidine-4-carboxamide] the IC50 (ROS tyrosine kinase) was 21 nM, the IC50 (JAK2 tyrosine kinase) was 540 nM and the GI50 (FIG-ROS/BaF3 cell) was 24 nM.

`COc1c(Nc2ncc(C#N)s2)nc(N2CCCC2c2ccc(C)cc2)nc1-c1ccc(S(C)(=O)=O)cc1` (stereo not drawn) [Example 13, 2-({5-Methoxy-2-[2-(4-methylphenyl)pyrrolidin-1-yl]-6-[4-(methylsulfonyl)phenyl]pyrimidin-4-yl}amino)-1,3-thiazole-5-carbonitrile] showed an IC50 (ROS tyrosine kinase) of 44 nM, an IC50 (JAK2 tyrosine kinase) of at least 1000 nM and a GI50 (FIG-ROS/BaF3 cell) of 3.5 nM.

`COc1ccc(-c2nc(N3CCCC3c3ccc(C)cc3)nc(Nc3ncc(C#N)s3)c2C)cn1` (stereo not drawn) [Example 15, 2-({6-(6-Methoxypyridin-3-yl)-5-methyl-2-[2-(4-methylphenyl)pyrrolidin-1-yl]pyrimidin-4-yl}amino)-1,3-thiazole-5-carbonitrile] was tested, and the IC50 (ROS tyrosine kinase) was 16 nM, the IC50 (JAK2 tyrosine kinase) was over 1000 nM and the GI50 (FIG-ROS/BaF3 cell) was 20 nM.

With `COc1cnc(N2CCCC2c2ccc(C)cc2)nc1Nc1ncc(C#N)s1` (stereo not drawn) [Example 19, 2-({5-Methoxy-2-[2-(4-methylphenyl)pyrrolidin-1-yl]pyrimidin-4-yl}amino)-1,3-thiazole-5-carbonitrile] the IC50 (ROS tyrosine kinase) was 2.6 nM, the IC50 (JAK2 tyrosine kinase) was 220 nM and the GI50 (FIG-ROS/BaF3 cell) was 2.9 nM.

`N#Cc1cnc(Nc2nc(N3CCCC3c3ccc(F)cc3)cnc2-c2ccncc2)s1` (stereo not drawn) [Example 26, 2-({6-[2-(4-Fluorophenyl)pyrrolidin-1-yl]-3-(pyridin-4-yl)pyrazin-2-yl}amino)-1,3-thiazole-5-carbonitrile] gave an IC50 (ROS tyrosine kinase) of 12 nM, an IC50 (JAK2 tyrosine kinase) of over 1000 nM and a GI50 (FIG-ROS/BaF3 cell) of 10 nM.
